From patent US9260710B2, “Photocleavable linker” (City of Hope, priority 2012, dated 2016)

What was measured:
LC8 and FKBP-LC8TRAP = biological target: T1, LC8 and FKBP-LC8TRAP (Homo sapiens, UniProt P62942, F37V); experiment: Native PAGE of LC8-LC8TRAP complex formation induced by dimerizer; type: biochemical; details: for complex formation between LC8 and FKBP-LC8TRAP (new band): native PAGE, addition of dimerization agent
T1 construct: made in house; host or cells: bacteria (pET21D vector)
Protocol: (§1) Native PAGE. Each of, LC8 and FKBP-LC8TRAP, were mixed in a molar concentration of 50 μM and 1.2 molar excess (60 μM) of AP20187 or 2.4 molar excess (120 μM) of PhAP20187. The mix were incubated at 4° C. for 5 min. Native PAGE analysis was performed at 16° C. using 8-25% gradient gels on the PHASTSYSTEM™ (GE Biosciences).
We then tested whether this replacement of the amine linker with the o-nitrobenzyl moiety affected the dimerization of FKBP in vitro. We used native PAGE to follow the formation of the LC8-LC8 molecular trap (LC8TRAP) complex induced by addition of PhAP. See e.g., Varma et al., 2010 (Id.) Upon the addition of PhAP to an equimolar mixture of LC8 and LC8TRAP, we observed a new band that migrated the same distance as the band produced by addition of AP (FIG. 2A).
Native PAGE analysis was conducted for stoichiometric complex formation between LC8 and FKBP-LC8TRAP on addition of dimerization agent AP.

LC8-LC8TRAP complex = experiment: UV light (350 nm) disruption of dimerizer-LC8-LC8TRAP complex, native PAGE; type: biochemical; details: UV 350 nm
Protocol: as §1
Next, we characterized how well UV light could disrupt the PhAP-LC8-LC8TRAP complex in vitro. We generated the PhAP-LC8-LC8TRAP and AP-LC8-LC8TRAP complexes and exposed each to UV light (350 nm). Native PAGE indicated loss of the band corresponding to the PhAP-LC8-LC8TRAP complex and an increase in intensity of bands corresponding to the individual components after UV induction. The band corresponding to the PhAP-LC8-LC8TRAP complex was less intense in samples that received a five min exposure to UV light and undetectable after a 10 min exposure. On the other hand, the LC8-LC8TRAP complex induced by the non-photocleavable AP persisted, even after a 30 min exposure to UV light (FIG. 2C).

[1] = system: EGFP-FKBP-LC8TRAP transfected COS1 cells; experiment: Endosome dispersion (EEA1 staining) in trap-transfected cells; type: cell-based; details: for time of drug treatment after which maximum dispersion was reached: unchanged with further increase in time; for maximum number of cells with dispersed endosomes: 2 h, dimerizer concentrations greater than 500 nM; for drug concentration at which maximum dispersion is seen: 2 hrs treatment, unchanged with further increase in concentration
Protocol: Cell Culture. COS1 cells were cultured in DMEM (CELLGRO®) supplemented with 10% fetal bovine/calf serum (Omega Scientific). Transfection was performed in 80-90% confluent 24-h cultures of COS1 cells using LIPOFECTAMINE™ 2000 (Invitrogen) and OPTI-MEM™ media (GIBCO®) according to the manufacturer's recommendations. Various concentrations (0 nM to 1000 nM) of AP (Ariad Pharmaceuticals Inc.) and PhAP (as described herein) were added to each experimental wells 24 hr. post transfection and incubated for different periods of time before analyzing the cells. For reversibility of endosome dispersion studies, 500 nM of AP/PhAP were used. In each case, the cells were washed well with PBS and supplemented with fresh media before inducing with UV light (10 mins., 4 W, 350 nm) and allowed to recover for various time period at 37° C., before analysis.
Immunostaining and Microscopy. For immunostaining, transiently transfected COS1 cells were fixed with 3.7% formaldehyde at room temperature for 10 min, and subsequent immunostaining was performed as described previously^[2]. Briefly, COS 1 cells grown on 25-mm coverslips were washed 3× with PBS, treated with 3.7% formaldehyde (Sigma) in PBS for fixation, and permeabilized in 0.5% Triton X-100 (Sigma) in PBS at room temperature for 10 min. Cells were then incubated with blocking buffer containing 4% skimmed milk (fat free) and 0.5% Triton X-100 in PBS. Anti-EEA1 monoclonal antibody was added to label early endosome marker protein at a dilution of 1:100 in the same buffer for 30 min at RT, and the coverslips were washed and incubated with rhodamine-conjugated donkey anti-mouse secondary antibody (1:100). After washing, the coverslips were mounted on slides to visualize the trapping effects. Samples were viewed using an Olympus IX81 automated inverted microscope equipped with water immersion 60× objective. The level of dispersion was quantified by counting 100 cells per coverslip. Each experiment was performed in triplicate. Images were obtained using a Spot RT Slider high-resolution cooled CCD camera equipped to IX81 microscope and Image-Pro software. Images were cropped and processed using Adobe Photoshop 7.0 (Adobe Systems).
To determine if these biochemical results had relevance in cells, we investigated if photocleavage of PhAP could reverse the endosome dispersion phenotype induced by LC8TRAP and AP. First, we established that PhAP behaved in a similar intracellular manner as AP. To this end, we used a green fluorescent protein (GPF) analog of the trap, EGFP-FKBP-LC8TRAP to identify cells that expressed the trap. COS1 cells were transiently transfected with EGFP-FKBP-LC8TRAP for 24 h, after which they were treated with PhAP or AP (0 nM-1000 nM) for 2 h. Cells were then fixed and stained with an early endosome marker 1 (EEA1). The number of cells with dispersed endosomes after treatment with PhAP or AP was indistinguishable. The maximum number of cells with dispersed endosomes (67.5±7.0% for PhAP and 64.1±7.6% for non-photocleavable AP), was obtained at dimerizer concentrations greater than 500 nM. The rate of dispersion was also similar using either dimerizing agent, and no changes were observed past 2 hours. The values obtained for both AP and PhAP are also in agreement with our previous studies. See e.g., Varma et al., 2010 (Id.)

[2] = 500 nM, time 0.167 Hr (10 min.)

T1 sequence (P62942 with tags, fused parts or gaps F37V): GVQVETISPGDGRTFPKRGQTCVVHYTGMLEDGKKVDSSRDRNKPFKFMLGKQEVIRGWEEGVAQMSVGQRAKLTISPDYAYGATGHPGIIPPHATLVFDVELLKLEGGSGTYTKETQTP

SMILES	complex formation between LC8 and FKBP-LC8TRAP (new band) (LC8 and FKBP-LC8TRAP)	band of dimerizer-LC8-LC8TRAP complex after UV exposure (LC8-LC8TRAP complex; 30 min exposure)	Percentage of endosomes dispersion ([1]; 10 nM, 2 hr. of treatment) [%]	Percentage of endosomes dispersion ([1]; 20 nM, 2 hr. of treatment) [%]	Percentage of endosomes dispersion ([1]; 100 nM, 2 hr. of treatment) [%]	Percentage of endosomes dispersion ([1]; 500 nM, 2 hr. of treatment) [%]	Percentage of endosomes dispersion ([1]; 500 nM, time 0 Hr)	Percentage of endosomes dispersion [1, 2] [%]	Percentage of endosomes dispersion ([1]; 500 nM, time 0.5 Hr) [%]	Percentage of endosomes dispersion ([1]; 500 nM, time 1 Hr) [%]	Percentage of endosomes dispersion ([1]; 500 nM, time 2 Hr) [%]	Percentage of endosomes dispersion ([1]; 500 nM, time 4 Hr) [%]	time of drug treatment after which maximum dispersion was reached ([1]; 500 nM) [h]	Percentage of endosomes dispersion ([1]; 1000 nM, 2 hr. of treatment) [%]	maximum number of cells with dispersed endosomes [1] [%]	drug concentration at which maximum dispersion is seen [1] [nM]	concentration required to produce a complex band of the same intensity as the sample treated with AP (LC8 and FKBP-LC8TRAP; equimolar mixture of LC8 and LC8TRAP, relative to AP) [×]	band of dimerizer-LC8-LC8TRAP complex after UV exposure (LC8-LC8TRAP complex; 10 min exposure)	band of dimerizer-LC8-LC8TRAP complex after UV exposure (LC8-LC8TRAP complex; five min exposure)	Percentage of endosomes dispersion ([1]; 50 nM, 2 hr. of treatment) [%]
CCC(C(=O)N1CCCCC1C(=O)OC(CCc1ccc(OC)c(OC)c1)c1cccc(OCC(=O)NCC(CNC(=O)COc2cccc(C(CCc3ccc(OC)c(OC)c3)OC(=O)C3CCCCN3C(=O)C(CC)c3cc(OC)c(OC)c(OC)c3)c2)CN(C)C)c1)c1cc(OC)c(OC)c(OC)c1 (centres unmarked) [AP, AP20187]	produces a new band	persisted	44.4 ± 2.4	53.0 ± 3.5	56.2 ± 1.6	64.1 ± 7.6	30.2 ± 2.8%	45.0 ± 2.6	53.6 ± 6.5	53.8 ± 2.9	69.8 ± 4.3	70.9 ± 2.1	2	66.4 ± 2.5	64.1±7.6	500				
CC[C@H](C(=O)N1CCCC[C@H]1C(=O)O[C@H](CCc1ccc(OC)c(OC)c1)c1cccc(OCC(=O)OC(C)c2ccc(C(C)OC(=O)COc3cccc([C@@H](CCc4ccc(OC)c(OC)c4)OC(=O)[C@@H]4CCCCN4C(=O)[C@@H](CC)c4cc(OC)c(OC)c(OC)c4)c3)c([N+](=O)[O-])c2)c1)c1cc(OC)c(OC)c(OC)c1 (some centres unmarked) [PhAP]	can also form complex between LC8 and FKBP-LC8TRAP efficiently		47.9 ± 8.1	48.0 ± 5.0	57.5 ± 2.4	67.5 ± 7.0	29.0 ± .8%	47.2 ± 2.5	49.1 ± 3.3	57.2 ± 5.2	71.2 ± 2.0	69.0 ± 4.9	2	67.7 ± 4.9	67.5±7.0	500	2	undetectable	less intense	55.5 ± 1.3
